{"source": "patent US20100197944A1", "about": "“DOCETAXEL PROCESS AND POLYMORPHS” (DR. REDDY'S LABORATORIES LIMITED, priority 2007, published 2010)", "origin": "cited, not measured here", "conditions": "compared with anhydrous docetaxel", "data": [{"molecule": "CC(=O)O[C@@]12CO[C@@H]1C[C@H](O)[C@@]1(C)C(=O)[C@H](O)C3=C(C)[C@@H](OC(=O)[C@H](O)[C@@H](NC(=O)OC(C)(C)C)c4ccccc4)C[C@@](O)([C@@H](OC(=O)c4ccccc4)[C@H]21)C3(C)C", "note": "[Docetaxel trihydrate, 4-acetoxy-2α-benzoyloxy-5β,20-epoxy-1,7β,10β-trihydroxy-9-oxo-tax-11-en-13-α-yl-(2R,3S)-3-tert-butoxycarbonylamino-2-hydroxy-3-phenylpropionate trihydrate]", "values": [{"measurement": "Stability relative to the anhydrous product", "result": "substantially greater stability"}]}]}
